Columns and labels:
[1] = test system: luciferase expression in the liver; assay: In vivo luciferase mRNA expression in mouse liver with lipid nanoparticle formulations; set-up: species or system C57BL/6 mice; conditions: tail vein injection, liver 4 hours after administration, FLuc mRNA; for Liver Luc @ 0.3 mg/kg (ng luc/g liver) / Liver Luc @ 1.0 mg/kg (ng luc/g liver): LNP 50% cationic lipid/10% DSPC/38.5% cholesterol/1.5% PEG-DMA
Description: (§1) Cationic lipid (MC3), DSPC, cholesterol and PEG-lipid were solubilized in ethanol at a molar ratio of 50:10:38.5:1.5. Lipid nanoparticles (LNP) were prepared at a total lipid to mRNA weight ratio of approximately 10:1 to 30:1. Briefly, the mRNA was diluted to 0.2 mg/mL in 10 to 50 mM citrate buffer, pH 4. Syringe pumps were used to mix the ethanolic lipid solution with the mRNA aqueous solution at a ratio of about 1:5 to 1:3 (vol/vol) with total flow rates above 15 ml/min. The ethanol was then removed and the external buffer replaced with PBS by dialysis. Finally, the lipid nanoparticles were filtered through a 0.2 μm pore sterile filter. Lipid nanoparticle particle size was 70-90 nm diameter as determined by quasi-elastic light scattering using a Nicomp 370 submicron particle sizer (Santa Barbara, Calif.).
Studies were performed in 6-8 week old female C57BL/6 mice (Charles River) according to guidelines established by an institutional animal care committee (ACC) and the Canadian Council on Animal Care (CCAC). Varying doses of mRNA-lipid nanoparticle were systemically administered by tail vein injection and animals euthanized at specific time points (1, 2, 4, 8 and 24 hrs) post-administration. Liver and spleen were collected in pre-weighted tubes, weights determined, immediately snap frozen in liquid nitrogen and stored at −80° C. until processing for analysis.
For liver, approximately 50 mg was dissected for analyses in a 2 mL FastPrep tubes (MP Biomedicals, Solon Ohio). ¼″ ceramic sphere (MP Biomedicals) was added to each tube and 500 μL of Glo Lysis Buffer—GLB (Promega, Madison Wis.) equilibrated to room temperature was added to liver tissue. Liver tissues were homogenized with the FastPrep24 instrument (MP Biomedicals) at 2×6.0 m/s for 15 seconds. Homogenate was incubated at room temperature for 5 minutes prior to a 1:4 dilution in GLB and assessed using SteadyGlo Luciferase assay system (Promega). Specifically, 50 μL of diluted tissue homogenate was reacted with 50 μL of SteadyGlo substrate, shaken for 10 seconds followed by 5 minute incubation and then quantitated using a CentroXS^3 LB 960 luminometer (Berthold Technologies, Germany). The amount of protein assayed was determined by using the BCA protein assay kit (Pierce, Rockford Ill.). Relative luminescence units (RLU) were then normalized to total ug protein assayed. To convert RLU to ng luciferase a standard curve was generated with QuantiLum Recombinant Luciferase (Promega). Based in the data provided in FIG. 1, the four-hour time point was chosen for efficacy evaluation of the lipid formulations (see Example 29).
The FLuc mRNA (L-6107) from Trilink Biotechnologies will express a luciferase protein, originally isolated from the firefly, Photinus pyralis. FLuc is commonly used in mammalian cell culture to measure both gene expression and cell viability. It emits bioluminescence in the presence of the substrate, luciferin. This capped and polyadenylated mRNA is fully substituted with 5-methylcytidine and pseudouridine.
The cationic lipids shown in Table 2 have previously been tested with nucleic acids. For comparative purposes, these lipids were also used to formulate lipid nanoparticles containing the FLuc mRNA (L-6107) using an in line mixing method, as described in example 28 and in PCT/US10/22614, which is hereby incorporated by reference in its entirety. […] Relative activity was determined by measuring luciferase expression in the liver 4 hours following administration via tail vein injection as described in example 28. The activity was compared at a dose of 0.3 and 1.0 mg mRNA/kg and expressed as ng luciferase/g liver measured 4 hours after administration, as described in Example 28. […]

[2] = pKa of formulated cationic lipids in lipid nanoparticles (TNS fluorescence assay); assay type: physicochemical; conditions: probe 2-(p-toluidino)-6-napthalene sulfonic acid (TNS), 1 µM final; formulated in LNP cationic lipid/DSPC/cholesterol/PEG-lipid 50/10/38.5/1.5 mol %; pH of half-maximal TNS fluorescence
Description: As described elsewhere, the pKa of formulated cationic lipids is correlated with the effectiveness of LNPs for delivery of nucleic acids (see Jayaraman et al, Angewandte Chemie, International Edition (2012), 51(34), 8529-8533; Semple et al, Nature Biotechnology 28, 172-176 (2010)). The preferred range of pKa is ˜5 to ˜7. […] Lipid nanoparticles comprising of cationic lipid/DSPC/cholesterol/PEG-lipid (50/10/38.5/1.5 mol %) in PBS at a concentration of 0.4 mM total lipid are prepared using the in-line process as described in Example 28. TNS was prepared as a 100 μM stock solution in distilled water. Vesicles were diluted to 24 μM lipid in 2 mL of buffered solutions containing, 10 mM HEPES, 10 mM MES, 10 mM ammonium acetate, 130 mM NaCl, where the pH ranged from 2.5 to 11. An aliquot of the TNS solution was added to give a final concentration of 1 μM and following vortex mixing fluorescence intensity was measured at room temperature in a SLM Aminco Series 2 Luminescence Spectrophotometer using excitation and emission wavelengths of 321 nm and 445 nm. A sigmoidal best fit analysis was applied to the fluorescence data and the pKa was measured as the pH giving rise to half-maximal fluorescence intensity (see FIG. 2).

[3] = Lipid nanoparticle particle size by quasi-elastic light scattering; assay type: physicochemical; conditions: MC3/DSPC/cholesterol/PEG-lipid 50:10:38.5:1.5 LNP with mRNA, Nicomp 370
Description: as §1

CCCCCCCCC(=O)N(CCCN(C)C)C(CCCCCCCCCOC(=O)C(CCCC)CCCCCC)CCCCCCCCCOC(=O)C(CCCC)CCCCCC (centres unmarked) [Compound 17]
Liver Luc @ 0.3 mg/kg (ng luc/g liver) ([1]; 0.3 mg mRNA/kg): 837 ± 260 ng luc/g liver
Liver Luc @ 1.0 mg/kg (ng luc/g liver) ([1]; 1.0 mg mRNA/kg): 6703 ± 689 ng luc/g liver
pKa [2]: 6.29

CCCCCC(CCCC)OC(=O)CCCCCCCC(=O)N(CCCN(C)C)C(CCCCCCCCC(=O)OC(CCCC)CCCC)CCCCCCCCC(=O)OC(CCCC)CCCC (centres unmarked) [Compound 24]
Liver Luc @ 0.3 mg/kg (ng luc/g liver) ([1]; 0.3 mg mRNA/kg): 1120 ± 376 ng luc/g liver
Liver Luc @ 1.0 mg/kg (ng luc/g liver) ([1]; 1.0 mg mRNA/kg): 7425 ± 2810 ng luc/g liver
pKa [2]: 6.14

CCCCCCC(CCCC)COC(=O)CCCCCCCCC(CCCCCCCCC(=O)OCC(CCCC)CCCCCC)N(CCCN(C)C)C(=O)C(CC)CCCCC (centres unmarked) [Compound 35]
Liver Luc @ 0.3 mg/kg (ng luc/g liver) ([1]; 0.3 mg mRNA/kg): 1083 ± 350 ng luc/g liver
Liver Luc @ 1.0 mg/kg (ng luc/g liver) ([1]; 1.0 mg mRNA/kg): 8554 ± 4587 ng luc/g liver
pKa [2]: 5.97

CCCCCCCCC(=O)N(CCCN(C)C)C(CCCCCCCCCOC(=O)C(CCCCCC)CCCCCCCC)CCCCCCCCCOC(=O)C(CCCCCC)CCCCCCCC (centres unmarked) [Compound 36]
Liver Luc @ 0.3 mg/kg (ng luc/g liver) ([1]; 0.3 mg mRNA/kg): 541 ± 91 ng luc/g liver
Liver Luc @ 1.0 mg/kg (ng luc/g liver) ([1]; 1.0 mg mRNA/kg): 4736 ± 980 ng luc/g liver
pKa [2]: 6.13

CCCCCCCCC(=O)N(CCCN(C)C)C(CCCCCC(=O)OCC(CCCCCC)CCCCCCCC)CCCCCC(=O)OCC(CCCCCC)CCCCCCCC (centres unmarked) [Compound 38]
Liver Luc @ 0.3 mg/kg (ng luc/g liver) ([1]; 0.3 mg mRNA/kg): 905 ± 443 ng luc/g liver
Liver Luc @ 1.0 mg/kg (ng luc/g liver) ([1]; 1.0 mg mRNA/kg): 5353 ± 2082 ng luc/g liver
pKa [2]: 6.45

CCCCCCCCC(CCCCCC)COC(=O)CCCCCC(CCCCCC(=O)OCC(CCCCCC)CCCCCCCC)N(CCCN(C)C)C(=O)CCCCCCC (centres unmarked) [Compound 39]
Liver Luc @ 0.3 mg/kg (ng luc/g liver) ([1]; 0.3 mg mRNA/kg): 779 ± 82 ng luc/g liver
Liver Luc @ 1.0 mg/kg (ng luc/g liver) ([1]; 1.0 mg mRNA/kg): 5180 ± 2116 ng luc/g liver
pKa [2]: 6.45

CCCCCCCCC(CCCCCC)COC(=O)CCCCCC(CCCCCC(=O)OCC(CCCCCC)CCCCCCCC)N(CCCN(C)C)C(=O)CCCCCCCC(=O)OCC (centres unmarked) [Compound 40]
Liver Luc @ 0.3 mg/kg (ng luc/g liver) ([1]; 0.3 mg mRNA/kg): 753 ± 156 ng luc/g liver
Liver Luc @ 1.0 mg/kg (ng luc/g liver) ([1]; 1.0 mg mRNA/kg): 2203 ± 1555 ng luc/g liver
pKa [2]: 6.57

CCCCC/C=C\C/C=C\CCCCCCCCC(CCCCCCCC/C=C\C/C=C\CCCCC)OC(=O)CCCN(C)C [MC3, reference compound]
Liver Luc @ 0.3 mg/kg (ng luc/g liver) ([1]; 0.3 mg mRNA/kg): 603 ± 150 ng luc/g liver
Liver Luc @ 0.3 mg/kg dose ([1]; 0.3 mg mRNA/kg, LNP 50% cationic lipid/10% DSPC/38.5% cholesterol/1.5% PEG-DMG): 198 ± 126 ng luciferase/g liver
Liver Luc @ 1.0 mg/kg (ng luc/g liver) ([1]; 1.0 mg mRNA/kg): 2876 ± 622 ng luc/g liver
Liver Luc @ 1.0 mg/kg dose ([1]; 1.0 mg mRNA/kg, LNP 50% cationic lipid/10% DSPC/38.5% cholesterol/1.5% PEG-DMG): 757 ± 528 ng luciferase/g liver
Lipid nanoparticle particle size (diameter) [3]: 70-90 nm

— patent US20220204439A1, “LIPIDS AND LIPID NANOPARTICLE FORMULATIONS FOR DELIVERY OF NUCLEIC ACIDS” (Acuitas Therapeutics, Inc., priority 2015, published 2022)
